Laboratory results: patent US9029589B2, “Phenyl alkyl carbamate derivative compound and pharmaceutical composition containing the same” (Bio-Pharm Solutions Co., Ltd., priority 2011, dated 2015)

Columns and labels:
Format in all cases: in vivo
Settings in all cases: intraperitoneal, at time of maximum effect, 50% of muscle relaxation activity vs vehicle only (100%)
male mice (ICR) [1] = assay: Muscle relaxation activity by grip strength (forelimbs)
Method: (§1) For testing, male mice (ICR) were purchased from ORIENT BIO INC. (Korea), divided into several groups with 6 mice in each group, and were adapted for 4-5 days. The mice having the weight ranging from 19 g to 26 g were employed for the test. The pharmacological effect of the test compounds on muscle relaxation was evaluated by Rotarod test, grip strength test, and muscular force (wire hang) test. All mice were adapted to the test environment at one hour before starting the tests. The pharmacological effects of all the test compounds were evaluated by administration through peritoneal cavity of the mice (10 ul/g, bw).
A grip strength test using the test animals' forelimbs was performed using an instrument equipped with triangle ring and designed so as to easily grip with the forelimbs of experimental animals, manufactured from Ugo Basile Inc. (Ugo Basile, Model 47106, Italy). The test was conducted before and after administration of the compounds to evaluate the effects thereof. […] The mouse was made to grip the rod with its forelimbs, and its tail was pulled, where the force at which the mouse detached from the rod was recorded. The instrument indicated the force in grams. All of the mice were given 3 opportunities for test, and the 3 highest values among the test opportunities were selected and the mean value was used as the test result. This experimentation was conducted according to the method described in the reference, ‘Nevins et al. (1993) Quantitative grip strength assessment as a means of evaluating muscle relaxation in mice. Psychopharmacol. 110: 92-96’.
(§2) The results of muscle relaxation activity of the phenyl alkyl carbamate derivative compounds measured in above Experimental Examples 1 to 3 are shown in following Table 3.

male mice (ICR) [2] = assay: Muscle relaxation activity by wire hang
Method: as §1
This experimentation was conducted using a metal wire of 30 cm in length, which was suspended between two pillars at a height of about 40 cm from the bottom covered with a soft pad. […] Each mouse was made to grip the wire using two forelimbs, and the elapse time before the mouse fell off from the wire to the pad on the bottom was recorded in seconds. Each mouse was given 5 opportunities for this test at an interval of 2 minutes period. The highest 3 records among the test opportunities were selected and the mean value was used as the test result. This experimentation was conducted according to the method described in the reference, ‘Jacqueline N. Crawley (1999) Behavioral phenotyping of transgenic and knockout mice: experimental design and evaluation of general health, sensory functions, motor abilities, and specific behavioral tests. Brain Res. 835: 18-26’.
as §2

male mice (ICR) [3] = assay: Muscle relaxation activity by residence time on a rotarod rotating at a fixed speed (15 r.p.m.)
Method: as §1
All the mice to be tested were preliminarily trained for 5 minutes on a rod rotating at the rate of 15 revolutions per a minute. The mice that could not remain on the rod without falling off therefrom for a minimum of 2 minutes were excluded from this testing. After the training, all the mice were allowed to rest for 45-60 minutes. Before the administration of the test compounds, the mice were subjected to a further training for one minute on the rod rotating under the same condition, where the mice falling off from the rod were excluded from this experimentation. […] In case a mouse stays on the rod until the test is finished, the time was recorded as 10 minutes. As test time for evaluation, a maximum of 10 minutes was applied. This experimentation was conducted according to the method described in the reference, ‘Yasuda et al. (2005) Antipyretic, analgesic and muscle relaxant activities of Pueraria isoflavonoids and their metabolites from Pueraria lobata Ohwi—a traditional Chinese drug. Biol. Pharm. Bull. 28: 1224-1228’.
as §2

| SMILES | MR test (ED50) II = Grip strength (male mice (ICR) [1]) | MR test (ED50) III = Wire hang (male mice (ICR) [2]) | MR test (ED50) I = Fixed 15 r.p.m. Rotarod (male mice (ICR) [3]) |
| --- | --- | --- | --- |
| COCO[C@@H](c1ccccc1Cl)[C@H](C)OC(N)=O [Example 1, 1-(2-chlorophenyl)-(S)-1-methoxymethoxypropyl-(S)-2-carbamate] | 115.2 mg/kg, bw | 37.0 mg/kg, bw | 55.0 mg/kg, bw |
| COCO[C@H](c1ccccc1I)[C@@H](C)OC(N)=O [Example 91, 1-(2-iodophenyl)-(R)-1-methoxymethoxypropyl-(R)-2-carbamate] | – | 24.4 mg/kg, bw | 30.1 mg/kg, bw |
| CO[C@@H](c1ccccc1Cl)[C@H](C)OC(N)=O [Example 124, 1-(2-chlorophenyl)-(S)-1-methoxypropyl-(S)-2-carbamate] | 66.4 mg/kg, bw | 34.8 mg/kg, bw | 35.9 mg/kg, bw |
| CO[C@@H](c1ccccc1F)[C@H](C)OC(N)=O [Example 135, 1-(2-fluorophenyl)-(S)-1-methoxypropyl-(S)-2-carbamate] | 145.6 mg/kg, bw | 26.2 mg/kg, bw | 60.0 mg/kg, bw |
| CO[C@@H](c1ccccc1I)[C@H](C)OC(N)=O [Example 143, 1-(2-iodophenyl)-(S)-1-methoxypropyl-(S)-2-carbamate] | 61.0 mg/kg, bw | 33.5 mg/kg, bw | 13.0 mg/kg, bw |
| C[C@H](OC(N)=O)[C@@H](OC(N)=O)c1ccccc1Cl [Example 247, 1-(2-chlorophenyl)-(S)-1-carbamoyloxypropyl-(S)-2-carbamate] | 264.3 mg/kg, bw | – | – |
| C[C@@H](OC(N)=O)[C@H](OC(N)=O)c1ccccc1Cl [Example 250, 1-(2-chlorophenyl)-(R)-2-carbamoyloxypropyl-(R)-1-carbamate] | 225.6 mg/kg, bw | – | – |
